# Results: PubChem BioAssay (NCI)
#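 How tested: cells in 96-well plates exposed to compound for 48 hours at five concentrations. TGI marks complete inhibition of growth.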 *1 amine or outer side, *2 acyl side, *3 side chain or, on linkers, in order; H or OH if unused. Where a SMILES comes first, the peptide text is derived from it. Bridges are numbered along the chain shown (N, C = ends). Roman numbers before positions name the chains, in order. [ ]: non-standard residue; d: D form. Actinocin(9to1) = Cc1c2oc3c(C)ccc(C(=O)[*:1])c3nc-2c(C(=O)[*:2])c(N)c1=O; Hyp = O=C(O)[CH]1C[CH](O)CN1; NMeV = CN[CH](C(=O)O)C(C)C; Sar = CNCC(=O)O
# Columns and labels:
# Assay in all cases: NCI tumour cell line growth inhibition, 48 h
# UACC-62 melanoma = test system: UACC-62 melanoma
# MDA-N = test system: MDA-N
# RXF 393 renal = test system: RXF 393 renal
# LOX IMVI melanoma = test system: LOX IMVI melanoma
# T-47D breast = test system: T-47D breast
# OVCAR-4 ovarian = test system: OVCAR-4 ovarian
# A498 renal = test system: A498 renal
# CAKI-1 renal = test system: CAKI-1 renal
# NCI-H23 lung = test system: NCI-H23 lung
# SNB-75 CNS = test system: SNB-75 CNS
# SW-620 colon = test system: SW-620 colon
# HCT-116 colon = test system: HCT-116 colon
# HCT-15 colon = test system: HCT-15 colon
SMILES,TGI (UACC-62 melanoma),TGI (MDA-N),TGI (RXF 393 renal),TGI (LOX IMVI melanoma),TGI (T-47D breast),TGI (OVCAR-4 ovarian),TGI (A498 renal),TGI (CAKI-1 renal),TGI (NCI-H23 lung),TGI (SNB-75 CNS),TGI (SW-620 colon),TGI (HCT-116 colon),TGI (HCT-15 colon)
CC(=O)O[C@H]1C(=O)[C@@]2(C)[C@H]([C@H](OC(=O)c3ccccc3)[C@]3(O)C[C@H](OC(=O)[C@H](O)[C@@H](NC(=O)c4ccccc4)c4cccc(N(C)C)c4)C(C)=C1C3(C)C)[C@]1(OC(C)=O)CO[C@@H]1C[C@@H]2O,> 50.2 µM,0.0238 µM,1.24 µM,> 75 µM,30.7 µM,> 43.6 µM,9.02 µM,> 75 µM,> 75 µM,> 36.1 µM,> 75 µM,> 61.4 µM,74.5 µM
O=c1[nH]nc(Cc2ccccc2)n1/N=C/c1cccnc1,,> 100 µM,> 100 µM,> 100 µM,> 100 µM,> 100 µM,> 100 µM,> 100 µM,> 100 µM,> 100 µM,> 100 µM,> 100 µM,> 100 µM
O=C(C/C(=N/O)C(F)(F)F)c1cccs1,> 100 µM,> 100 µM,> 100 µM,> 100 µM,> 100 µM,> 100 µM,> 100 µM,> 100 µM,> 100 µM,> 100 µM,> 100 µM,> 100 µM,> 100 µM
CCCCc1ccc(Nc2nc(Cl)c3ccn(C4CC(Oc5ccc(C)cc5)C(COc5ccc(C)cc5)O4)c3n2)cc1 (stereo unspecified),30.6 µM,> 46.4 µM,> 46.4 µM,> 46.4 µM,> 46.4 µM,> 31.6 µM,> 46.4 µM,> 46.4 µM,30.8 µM,> 100 µM,> 46.4 µM,> 46.4 µM,> 46.4 µM
CCCCc1ccc(Nc2nc(Cl)c3c(ncn3C3CC(Oc4ccc(C)cc4)C(COc4ccc(C)cc4)O3)n2)cc1 (stereo unspecified),> 100 µM,> 100 µM,> 100 µM,> 100 µM,> 100 µM,> 100 µM,> 100 µM,> 100 µM,> 100 µM,99.2 µM,> 100 µM,> 100 µM,> 100 µM
COC(=O)C1=C(C(=O)OC)C(N(C)C)C(C(=O)OC)=C(C(=O)OC)S1,> 100 µM,> 100 µM,> 100 µM,> 100 µM,> 100 µM,> 100 µM,> 100 µM,> 100 µM,> 100 µM,> 100 µM,> 100 µM,> 100 µM,> 100 µM
CCC(CC)(CO)CNc1cc(Cl)nc(N)n1,> 100 µM,> 100 µM,> 100 µM,> 100 µM,> 100 µM,> 100 µM,> 100 µM,> 100 µM,> 100 µM,> 100 µM,> 100 µM,> 100 µM,> 100 µM
C=CC(=O)N1C/C(=C\c2ccc([N+](=O)[O-])cc2)C(=O)/C(=C/c2ccc([N+](=O)[O-])cc2)C1,0.688 µM,0.856 µM,0.359 µM,0.18 µM,1.79 µM,1.33 µM,0.807 µM,0.801 µM,0.791 µM,1.16 µM,1.96 µM,0.115 µM,0.272 µM
CC(=O)O[C@H]1C[C@@H](OC(C)=O)[C@@](C)(O)[C@@H]2[C@@H](OC(C)=O)[C@@]3(O)[C@H](/C=C(/CO)[C@H]4O[C@H]4[C@@H](OC(C)=O)[C@@]12C)OC(=O)[C@@H]3C,> 25 µM,7.63 µM,10.7 µM,> 25 µM,> 25 µM,> 25 µM,> 25 µM,> 25 µM,> 25 µM,17.5 µM,> 25 µM,> 25 µM,> 25 µM
Cc1cc(S(=O)(=O)Nc2nncn2-c2ccc(Cl)cc2)c(S)cc1Cl,> 10 µM,> 10 µM,> 10 µM,> 10 µM,> 10 µM,> 10 µM,> 10 µM,> 10 µM,> 10 µM,> 10 µM,> 10 µM,> 10 µM,> 10 µM
COC(=O)C1=C(O)CCCC(C2CCCCC(=O)C2C(=O)OC)=C1 (stereo unspecified),42.3 µM,> 100 µM,> 100 µM,> 100 µM,> 100 µM,> 100 µM,58.7 µM,> 100 µM,> 100 µM,> 100 µM,> 100 µM,> 100 µM,> 100 µM
COc1ccc2c(c1)NC1(CCN(CCCC(=O)c3ccc(F)cc3)CC1)N=N2,41.6 µM,31.6 µM,55.1 µM,35.3 µM,53.5 µM,> 100 µM,76.7 µM,90.6 µM,97.7 µM,39.8 µM,57.9 µM,36 µM,52.4 µM
O=[N+]([O-])c1cc(F)ccc1S(=O)(=O)c1ccccc1,> 10 µM,> 10 µM,> 10 µM,> 10 µM,> 10 µM,> 10 µM,> 10 µM,> 10 µM,> 10 µM,> 10 µM,> 10 µM,> 10 µM,> 10 µM
O=[N+]([O-])c1cc2ccc(N(CCO)CCO)nc2nc1N(CCO)CCO,> 100 µM,> 100 µM,> 100 µM,> 100 µM,> 100 µM,> 100 µM,> 100 µM,> 100 µM,> 100 µM,> 100 µM,> 100 µM,> 100 µM,> 100 µM
Cc1c(C)c(C)c(-n2c(=O)n(C)c(=O)n2-c2cc(C(C)(C)C)cc(C(C)(C)C)c2O)c(C)c1C,23.7 µM,22.9 µM,11.6 µM,26.8 µM,18.6 µM,21.4 µM,26.3 µM,28.5 µM,24 µM,16.9 µM,28.4 µM,18.4 µM,22.5 µM
CCOC(=O)C(=CNC(=S)N=Nc1c(O)[nH]c2ccccc12)C(=O)OCC,> 100 µM,> 100 µM,> 100 µM,> 100 µM,> 100 µM,> 100 µM,> 100 µM,> 100 µM,> 100 µM,> 100 µM,> 100 µM,> 100 µM,
O=[N+]([O-])/C=C(\CS(=O)(=O)c1ccccc1)c1ccc2c(c1)OCO2,> 100 µM,> 100 µM,> 100 µM,> 100 µM,> 100 µM,,81.2 µM,93.5 µM,36.3 µM,> 100 µM,> 100 µM,> 100 µM,> 100 µM
O=C(N/N=C\c1cccc2ccccc12)Nc1cccc2ccccc12,,21.2 µM,43.4 µM,> 100 µM,> 100 µM,,51.3 µM,83.4 µM,> 100 µM,35.2 µM,> 100 µM,72 µM,> 100 µM
CCCCCCCCCCCCCCCCCCNC(=S)/N=C/c1c(O)c2ccccc2[nH]c1=O,,35.3 µM,53.5 µM,32.2 µM,90.5 µM,41 µM,36.9 µM,31.6 µM,37.5 µM,28 µM,42.4 µM,30.4 µM,29.4 µM
Cc1nc2c(cc1OCc1ccccc1)C(=O)C1=C(C2=O)C2OC(=O)CC2OC1(C)C (stereo unspecified),0.322 µM,1.75 µM,1.64 µM,0.475 µM,1.23 µM,1.94 µM,3.02 µM,1.67 µM,2.32 µM,3.94 µM,,1.04 µM,0.634 µM
"Cc1c2oc3c(C)ccc(C(=O)NC4C(=O)NC(C(C)C)C(=O)N5CC(O)CC5C(=O)N(C)CC(=O)N(C)C(C(C)C)C(=O)OC4C)c3nc-2c(C(=O)NC2C(=O)NC(C(C)C)C(=O)N3CC(O)CC3C(=O)N(C)CC(=O)N(C)C(C(C)C)C(=O)OC2C)c(N)c1=O (stereo unspecified) (I: TV[Hyp][Sar][NMeV] / II: TV[Hyp][Sar][NMeV]; ester I:1-I:C, II:1-II:C; linker I:N-II:N via Actinocin(9to1); configuration not given here)",,> 1 µM,> 1 µM,> 1 µM,> 1 µM,> 1 µM,> 1 µM,> 1 µM,> 1 µM,> 1 µM,> 1 µM,> 1 µM,> 1 µM
O=C(OC1CN2CCC1CC2)N(c1ccccc1)c1ccccc1 (stereo unspecified),> 100 µM,> 100 µM,> 100 µM,> 100 µM,> 100 µM,> 100 µM,78.5 µM,> 100 µM,> 100 µM,> 100 µM,,> 100 µM,> 100 µM
O[C@@H]1CCC[C@@H]2NC[C@@H](c3ccc4c(c3)OCO4)[C@H]12,> 100 µM,> 100 µM,> 100 µM,> 100 µM,> 100 µM,> 100 µM,> 100 µM,> 100 µM,> 100 µM,> 100 µM,> 100 µM,,> 100 µM
COc1c(Br)cc2ccccc2c1-c1c(OC)c(Br)cc2ccccc12,> 100 µM,> 100 µM,> 100 µM,> 100 µM,> 100 µM,> 100 µM,> 100 µM,> 100 µM,> 100 µM,> 100 µM,> 100 µM,,> 100 µM
